Laboratory results taken from PubChem BioAssay AID342 (DTP/NCI, 2004).
Where “and” joins values, the source holds several entries; their conditions need not be identical. Equal values may be shown once.

Test system: Swiss mice, Sarcoma 180 sc, mean tumor weight T/C
Test: NCI In Vivo Anticancer Drug Screen. Data for tumor model Sarcoma 180 (subcutaneous) in Swiss mice
Conditions: endpoint: mean tumor weight, higher = larger tumour
Summary of the method: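 Readout is the ratio of treated-group measurement to vehicle-control measurement (T/C), based on survival or tumor size in mice carrying transplanted tumors.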

[1] = dose: 250.0 mg/kg/injection, schedule: Q01DX007 (ip), vehicle: carboxymethylcellulose (CMC)
[2] = dose: 50.0 mg/kg/injection, schedule: Q01DX007 (ip), vehicle: carboxymethylcellulose (CMC)
[3] = dose: 125.0 mg/kg/injection, schedule: Q01DX007 (ip), vehicle: carboxymethylcellulose (CMC)

For `O=S(=O)(O)C(Nc1ccccc1)c1ccccc1` (stereo unspecified), the T/C (dose: 24.0 mg/kg/injection, schedule: Q01DX007 (ip), vehicle: carboxymethylcellulose (CMC)) was 80 % of control, the T/C (dose: 36.0 mg/kg/injection, schedule: Q01DX007 (ip), vehicle: carboxymethylcellulose (CMC)) was 94 % of control and the T/C (dose: 54.0 mg/kg/injection, schedule: Q01DX007 (ip), vehicle: carboxymethylcellulose (CMC)) was 92 % of control. For the same compound, the T/C (dose: 81.0 mg/kg/injection, schedule: Q01DX007 (ip), vehicle: carboxymethylcellulose (CMC)) was 93 % of control, the T/C (dose: 162.0 mg/kg/injection, schedule: Q01DX007 (ip), vehicle: carboxymethylcellulose (CMC)) was 113 % of control and the T/C (dose: 324.0 mg/kg/injection, schedule: Q01DX007 (ip), vehicle: carboxymethylcellulose (CMC)) was 84 % of control.

For `CC(=O)Nc1ccc2c(c1)Cc1cc(NC=O)ccc1-2`, the T/C (dose: 110.0 mg/kg/injection, schedule: Q01DX007 (ip), vehicle: carboxymethylcellulose (CMC)) was 54 % of control and 72 % of control, the T/C (dose: 165.0 mg/kg/injection, schedule: Q01DX007 (ip), vehicle: carboxymethylcellulose (CMC)) was 87 % of control and the T/C [1] was 46 % of control. The T/C (dose: 375.0 mg/kg/injection, schedule: Q01DX007 (ip), vehicle: carboxymethylcellulose (CMC)) was 79 % of control.

With `CN=C(N)c1ccc(N=C(N)c2ccc(C(N)=Nc3ccc(C(N)=NC)cc3)cc2)cc1` the T/C (dose: 12.5 mg/kg/injection, schedule: Q01DX007 (ip), vehicle: carboxymethylcellulose (CMC)) was 124 % of control, the T/C (dose: 25.0 mg/kg/injection, schedule: Q01DX007 (ip), vehicle: carboxymethylcellulose (CMC)) was 86 % of control and the T/C [2] was 80 % of control.

For `Cc1nnc2ncnc(N)c2n1`, the T/C [2] was 106 % of control and the T/C (dose: 75.0 mg/kg/injection, schedule: Q01DX007 (ip), vehicle: carboxymethylcellulose (CMC)) was 105 % of control.

For `CCCS/C(N)=N/N=C/c1ccc([N+](=O)[O-])o1`, the T/C (dose: 13.5 mg/kg/injection, schedule: Q#A X014 (ip), vehicle: water) was 81 % of control, the T/C (dose: 20.0 mg/kg/injection, schedule: Q#A X014 (ip), vehicle: water) was 53 % of control and the T/C (dose: 27.0 mg/kg/injection, schedule: Q01DX007 (ip), vehicle: other) was 67 % of control. The T/C (dose: 27.0 mg/kg/injection, schedule: Q01DX007 (ip), vehicle: water) was 61 % of control, the T/C (dose: 30.0 mg/kg/injection, schedule: Q#A X014 (ip), vehicle: water) was 34 % of control and the T/C (dose: 40.0 mg/kg/injection, schedule: Q01DX007 (ip), vehicle: water) was 45 % of control. For the same compound, the T/C (dose: 60.0 mg/kg/injection, schedule: Q01DX007 (ip), vehicle: water) was 59 % of control.

In the case of `CC1(C)OCC(C(OC(=O)c2ccccc2)C(OC2CCCCO2)C2COC(C)(C)O2)O1` (stereo unspecified), the T/C (dose: 62.5 mg/kg/injection, schedule: Q01DX007 (ip), vehicle: carboxymethylcellulose (CMC)) is reported as 90 % of control, the T/C [3] is reported as 86 % of control and the T/C [1] is reported as 100 % of control.

`c1ccc2c(c1)-c1cccc3c1c-2cc1ccccc13` was tested, and the T/C (dose: 25.0 mg/kg/injection, schedule: Q01DX007 (ip), vehicle: other) was 53 % of control, the T/C (dose: 36.0 mg/kg/injection, schedule: Q01DX007 (ip), vehicle: other) was 36 % of control and 47 % of control and the T/C (dose: 55.0 mg/kg/injection, schedule: Q01DX007 (ip), vehicle: carboxymethylcellulose (CMC)) was 35 % of control. For the same compound, the T/C (dose: 55.0 mg/kg/injection, schedule: Q01DX007 (ip), vehicle: other) was 57 % of control, the T/C (dose: 82.5 mg/kg/injection, schedule: Q01DX007 (ip), vehicle: other) was 26 % of control and 42 % of control and the T/C (dose: 125.0 mg/kg/injection, schedule: Q01DX007 (ip), vehicle: other) was 14 % of control.

`CS(=O)(=O)OCC(O)C(O)COS(C)(=O)=O` (stereo unspecified) was tested, and the T/C [3] was 74 % of control, the T/C [1] was 65 % of control and the T/C (dose: 500.0 mg/kg/injection, schedule: Q01DX007 (ip), vehicle: carboxymethylcellulose (CMC)) was 51 % of control. The T/C (dose: 1000.0 mg/kg/injection, schedule: Q01DX007 (ip), vehicle: carboxymethylcellulose (CMC)) was 45 % of control.

In the case of `CN(C)NCCC#N`, the T/C (dose: 15.0 mg/kg/injection, schedule: Q#A X014 (ip), vehicle: methylcellulose (MC)) is reported as 91 % of control, the T/C (dose: 22.5 mg/kg/injection, schedule: Q#A X014 (ip), vehicle: methylcellulose (MC)) is reported as 52 % of control and the T/C (dose: 33.5 mg/kg/injection, schedule: Q#A X014 (ip), vehicle: methylcellulose (MC)) is reported as 49 % of control. The T/C (dose: 50.0 mg/kg/injection, schedule: Q#A X014 (ip), vehicle: methylcellulose (MC)) was 39 % of control.

In the case of `COC1N(C2CC(O)C(CO)O2)C(=O)NC(=O)C1(F)Br` (stereo unspecified), the T/C (dose: 22.0 mg/kg/injection, schedule: Q01DX007 (ip), vehicle: saline) is reported as 85 % of control and 99 % of control and the T/C (dose: 75.0 mg/kg/injection, schedule: Q01DX007 (ip), vehicle: saline) is reported as 26 % of control and 43 % of control.
